Experimental data reported in patent EP0016746A1, “New therapeutically active spirocycloalkylamines and pharmaceutical preparations comprising such compounds” (priority 1979, dated 1980).

Columns and labels:
[1] = system: central dopamine (DA) receptors; assay: Blockade of apomorphine induced stereotypies and hyperactivity in rats; assay type: in vivo, Male Sprague-Dawley rats; details: for ED50 Hyper-activity / ED50 Stereo-typies: i.p. 60 min prior to apomorphine hydrochloride 1 mg/kg s.c.; for ED50 Hyper-activity: dose reducing number of animals showing hyperactivity by 50% over 60 min observation; for ED50 Stereo-typies: dose reducing strength of stereotypies by 50% over 60 min observation
From the text: The DA receptor blockade as measured by different in vitro anc in vivo techniques correlate roughly with the antipsychotic efficacy. The blockade of the behavioural effects induced by the DA receptor agonist apomorphine is highly correlated to the antipsychotic effect of various neuroleptics. The ability of potential neuroleptics to block the apomorphine induced behaviours may thus be a valuable predictor of the anti- psychotic efficacy in man.
Male Sprague-Dawley rats, weighing 250-300 g, were used. […] The compounds were injected intraperitoneally 60 min. prior to apomorphine hydrochloride (1 mg/kg dissolved in saline), which was injected subcutaneously into the neck. […] Directly after the injection the animals were placed in the cages, one in each cage. Scoring of the stereotypies was performed by a modified version (Fuxe et al. in Rhinencephale Neurotransmetteurs et Psychoses, by G. Masson, Paris 1977, p. 253) of the system introduced by Costall and Naylor (Eur. J. Pharmacol. 24 8 (1973).
The number of animals, displaying hyperactivity caused by apomorphine, was scored. Each group consisted of 6-8 animals. Saline controls were always run simultaneously. The EO50's for stereotypies are the doses which reduce the strength of the stereotypies by 50% over the observation period of 60 min. The Ed50's for hyperactivity are the doses which reduce the number of animals showing hyperactivity by 50% over the observation period of 60 min. EO50's were calculated from log dose-curves from 4-6 levels with 6-8 animals per dose level. The test compounds were dissolved in saline or water.

[2] = Heart effects: arterial blood pressure, heart rate and electrocardiograms after consecutive increasing intravenous doses in restrained rats; assay type: in vivo, Male Sprauge-Dawley rats; details: for Minimum doses causing changes in: Cardiogram intervals PR / Minimum doses causing changes in: Cardiogram intervals QRS / Minimum doses causing changes in: Cardiogram intervals QT / Minimum doses causing changes in: Heart rate (Decrease) / Minimum doses causing changes in: Mean arterial blood pressure (Decrease): change of more than 15% from values before administration
Description: Male Sprauge-Dawley rats weighing 290-360 grams were used. The animals were prepared for recording the arterial blood pressure through a catheter implanted into the abdominal aorta and for injection of drugs through a catheter implanted into the abdominal vena cava. Both catheters were exteriorized at the base of the neck. At least five days were allowed for recovery after the operation.
The animals were kept immobilized in restraining cages during the experiment. The arterial blood pressure was continuously monitored on a Grass Model 7 Polygraph via a Statham P23Gc transducer. Electrocardiograms were taken from subcutaneously placed thin needle electrodes and recorded on a Mingograph 34 (Elema-Schänander AB, Sweden).
Groups of rats were given consecutive increasing intravenous doses of the test compounds from the dose scale: 0.25, 0.5, 1, 2, 4, 8, 16, 32 and 64 […]. The test compounds were injected over a period of 30 seconds at an interval of five minutes at doses of 0.25-8 […] and with an interval of 15 minutes at higher dose ranges.
The minimum doses that caused changes in mean arterial blood pressure, heart rate, PR, QRS and QT intervals of more than 15% from values before administration were arbitrarily defined as a drug effect.

[3] = i.p., rats, comparison in words

| SMILES | ED50 Hyper-activity [1] [µmol/kg] | ED50 Stereo-typies [1] [µmol/kg] | Minimum doses causing arrhythmias (Second degree AV-block) [2] [µmol/kg] | Minimum doses causing changes in: Cardiogram intervals PR [2] [µmol/kg] | Minimum doses causing changes in: Cardiogram intervals QRS [2] [µmol/kg] | Minimum doses causing changes in: Cardiogram intervals QT [2] [µmol/kg] | Minimum doses causing changes in: Heart rate (Decrease) [2] [µmol/kg] | Minimum doses causing changes in: Mean arterial blood pressure (Decrease) [2] [µmol/kg] | potency to block apomorphine induced hyperactivity compared with clozapine [1, 3] | potency to block the stereotypies compared with clozapine [1, 3] | activity against apomorphine induced behaviours (in words) ([1]; i.p., rats, summary of Table 1) |
| --- | --- | --- | --- | --- | --- | --- | --- | --- | --- | --- | --- |
| CN(C)C1C=CC2(CC1)c1ccccc1CCc1ccc(Cl)cc12 (stereo not shown) [-N(CH3)2, reference compound] | 6.4 | 35 | 2 to 4 | 2 | >4 | 4 | 2 | 4 |  |  |  |
| OCCN1CCN(C2C=CC3(CC2)c2ccccc2CCc2ccc(Cl)cc23)CC1 (stereo not shown) [Example 4] | 24 | 70 | 64 | 32 | 16 | 16 | 16 to 32 | 8 | as potent as clozapine | more potent than clozapine |  |
| CN(C)CCCN1c2ccccc2Sc2ccc(Cl)cc21 [Chlorpromazine, reference compound] | 6.2 | 6.2 |  |  |  |  |  |  |  |  |  |
| CNC1C=CC2(CC1)c1ccccc1CCc1ccc(Cl)cc12 (stereo not shown) [Example 3, 3-Chloro-10,11-dihydro-N-methylspiro-[5H-dibenzo[a,d]-cyclohBptene-5,1'-cyclohex-2-Bn]-4'-amine] | 15 | 65 | 16 | 16 | 8 | 16 | 16 | 8 to 16 |  |  | active |
| CN1CCN(C2=Nc3cc(Cl)ccc3Nc3ccccc32)CC1 [Clozapine, reference compound] | 26 | 104 |  |  |  |  |  |  |  |  |  |
